Laboratory results: patent publication US9676756B2 (PORTOLA PHARMACEUTICALS, INC., priority 2012, dated 2017)

Key:
Format in all cases: biochemical
JAK1 = biological target: T1, JAK1 (Homo sapiens, UniProt P23458); assay: JAK tyrosine phosphorylation activity, Z'-LYTE FRET kinase assay; conditions: catalytic domain recombinant kinase, Tyr6 peptide
T1 construct: 5 μl of catalytic domain recombinant Kinase enzyme+Tyr peptide substrate (Invitrogen, CA); purchased Invitrogen
Procedure: (§1) JAK and SYK tyrosine phosphorylation activity is measured using the Z'-LYTE™ Technology developed by Invitrogen Corporation (Carlsbad, Calif.). For JAK1, JAK2 and JAK3 the Z'-LYTE™ Kinase Assay Kit-Tyr6 Peptide (part number PV4122) was used. The Z'-LYTE™ biochemical assay employs a fluorescence resonance energy transfer (FRET) coupled-enzyme format and is based on the differential sensitivity of phosphorylated and non-phosphorylated peptides to proteolitic cleavage. The assay uses a synthetic peptide substrate that is labelled with a donor fluorophore (coumarin) and an acceptor fluorophore (fluorescein) that make up a FRET pair. In the primary reaction (the Kinase Reaction), the kinase transfers the γ-phosphate of ATP to a single tyrosine residue on the substrate, while the presence of a kinase inhibitor in the primary reaction suppresses phosphorylation. In the secondary reaction (the Development Reaction), a site-specific protease (the Development Reagent) is added. The development buffer quenches the Kinase Reaction, while the protease recognizes and cleaves non-phosphorylated Z'-LYTE™ peptide substrate. Cleavage disrupts FRET between the donor and acceptor fluorophores on the non-phosphorylated substrate, while uncleaved, phosphorylated substrate maintains FRET.
(§2) To test the ability of candidate molecules to inhibit JAK tyrosine phosphorylation activity, molecules are reconstituted in 100% DMSO and serially diluted 1:10 in polypropylene v-bottom microtiter plates. The candidate molecules are then diluted 1:25 into kinase buffer and 2.5 μl transferred into duplicate wells of a 384 well low volume black microtiter assay plate (Corning, USA). The final DMSO concentration in the assay is 1%. The kinase reaction contains 2.5 μl of a candidate molecule, 5 μl of catalytic domain recombinant Kinase enzyme+Tyr peptide substrate (Invitrogen, CA) and 2.5 μl ATP (Invitrogen, CA). The kinase reaction is allowed to precede for 1 hour at room temperature. The protease reaction is initiated by the addition of 5 μl Development Reagent (Invitrogen, CA). After 1 hour incubation at room temperature the fluorescence is measured using a FlexStation plate reader (Molecular Devices, Sunnyvale, Calif.). The reader settings used are as follows: Fluorescence mode, endpoint, top read, excitation 400 nm, emission 445 nm and 520 nm. Auto Cutoff 435 nm and 515 nm, PMT sensitivity high, 6 reads per well. Inhibition of JAK activity is calculated as the percent phosphorylation of substrate in the presence of inhibitor compared to the percent phosphorylation of substrate in the absence of inhibitor. IC50's were derived using Xlfit 4.3 (IDBS, UK), 4 parameter logistic model 205: Y=(A+((B−A)/(1+((C/x)^D)))).

JAK2 = biological target: T2, JAK2 (Homo sapiens, UniProt O60674); assay: as above; conditions: catalytic domain recombinant kinase, Tyr6 peptide
T2 construct: 5 μl of catalytic domain recombinant Kinase enzyme+Tyr peptide substrate (Invitrogen, CA); purchased Invitrogen
Procedure: as §1, §2

JAK3 = biological target: T3, JAK3 (Homo sapiens, UniProt P52333); assay: as above; conditions: catalytic domain recombinant kinase, Tyr6 peptide
T3 construct: 5 μl of catalytic domain recombinant Kinase enzyme+Tyr peptide substrate (Invitrogen, CA); purchased Invitrogen
Procedure: as §1, §2

[1] = biological target: T4, full length active recombinant SYK enzyme (Homo sapiens, UniProt P43405); assay: SYK tyrosine phosphorylation activity, LANCE TR-FRET kinase assay; conditions: 1 nM SYK, 100 μM ATP, 1 hour at room temperature
T4 construct: full length active recombinant SYK enzyme (Millipore, CA); purchased Millipore
Procedure: Potency of candidate molecules for inhibiting Syk tyrosine phosphorylation activity is assessed by measuring the ability of a test compound to inhibit Syk-mediated tyrosine phosphorylation of a Syk-specific substrate.
SYK tyrosine phosphorylation activity is measured using the LANCE™ Technology developed by Perkin Elmer Life and Analytical Sciences (Boston, Mass.). LANCE™ refers to homogeneous time resolved fluorometry applications using techniques such as time-resolved fluorescence resonance energy transfer assay (TR-FRET) (see generally for procedures in Perkin Elmer Application Note—How to Optimize a Tyrosine Kinase Assay Using Time Resolved Fluorescence-Based LANCE Detection, wwww.perkinelmer.com/lifesciences). The assay principle involves detection of a phosphorylated substrate using energy transfer from a phosphospecific europium-labeled antibody to streptavidin-allophycocyanin as an acceptor.
To test the ability of candidate molecules to inhibit SYK tyrosine phosphorylation activity, molecules are reconstituted in 30% DMSO and serially diluted 1:3 with the final dilution containing DMSO in the absence of the candidate molecule. The final DMSO concentration in the assay is 3%. Kinase assays are performed as a two part reaction. The first reaction is a kinase reaction that comprises a candidate molecule, full length active recombinant SYK enzyme (Millipore, CA) and biotin-labeled SYK-specific substrate biotin-[…]-OH. The second reaction involves termination of the kinase reaction and the simultaneous addition of the detection reagents-europium-labeled anti-phosphotyrosine reagent (Eu-W1024-PY100, Perkin Elmer, Boston, Mass.) and Streptavidin-Allophycocyanin detection reagent (SA-APC, Prozyme, CA). The kinase reaction is performed in a black U-bottom 96-well microtitre plate. The final reaction volume is 50 μL and contains a final concentration of 1 nM active SYK enzyme, 550 nM SYK-substrate, and 100 μM ATP diluted in a buffer containing 50 mM Tris pH 7.5, 5 mM MgCl2, and 1 mM DTT. The reaction is allowed to proceed for 1 hour at room temperature. The stop buffer contains 100 mM Tris pH 7.5, 300 mM NaCl2, 20 mM EDTA, 0.02% Brij35, and 0.5% BSA. The detection reagents are added to the reaction mixture at the following dilutions—1:500 for Eu-W1024-PY100 and 1:250 for SA-APC. The kinase reaction is terminated by the addition of 50 μL stop buffer containing the detection reagents. The detection is allowed to proceed for 1 hr at room temperature. Detection of the phosphorolated substrate in the absence and presence of inhibitors is measured in the TR-FRET instrument, Analyst HT (Molecular Probes, Sunnyvale, Calif.) and the condition for measurements are set up using CriterionHost Release 2.0 (Molecular Probes, Sunnyvale, Calif.). The settings used are a follows: excitation 360 nm, emission 665-7.5 nm, beam splitter 350 nm 50/50, flash 100 pulses, delay 60 us, integration 400 us, z-height 2 mm. Inhibition of SYK-tyrosine kinase activity is calculated as the maximum response observed in the presence of inhibitor, compared to that in the absence of inhibitor. IC50s are derived by non-linear regression analysis.

T2 sequence (O60674 849-1124 limits assumed): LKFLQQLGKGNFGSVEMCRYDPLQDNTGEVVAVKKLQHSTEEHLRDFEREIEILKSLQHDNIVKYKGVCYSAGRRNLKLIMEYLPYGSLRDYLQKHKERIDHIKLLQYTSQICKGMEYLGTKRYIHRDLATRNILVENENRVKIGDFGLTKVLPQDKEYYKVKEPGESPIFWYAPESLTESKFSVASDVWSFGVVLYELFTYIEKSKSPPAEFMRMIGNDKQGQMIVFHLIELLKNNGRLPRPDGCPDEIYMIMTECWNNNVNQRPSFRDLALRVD
T3 sequence (P52333 822-1111 limits assumed): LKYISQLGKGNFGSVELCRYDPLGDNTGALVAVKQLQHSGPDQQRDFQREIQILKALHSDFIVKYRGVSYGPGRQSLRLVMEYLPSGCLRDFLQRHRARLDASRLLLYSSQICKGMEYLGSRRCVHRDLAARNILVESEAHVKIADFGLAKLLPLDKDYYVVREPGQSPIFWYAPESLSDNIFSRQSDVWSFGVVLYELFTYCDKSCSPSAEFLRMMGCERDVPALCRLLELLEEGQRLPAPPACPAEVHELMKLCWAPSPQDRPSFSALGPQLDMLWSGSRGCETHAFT
T1 sequence (P23458 875-1153 limits assumed): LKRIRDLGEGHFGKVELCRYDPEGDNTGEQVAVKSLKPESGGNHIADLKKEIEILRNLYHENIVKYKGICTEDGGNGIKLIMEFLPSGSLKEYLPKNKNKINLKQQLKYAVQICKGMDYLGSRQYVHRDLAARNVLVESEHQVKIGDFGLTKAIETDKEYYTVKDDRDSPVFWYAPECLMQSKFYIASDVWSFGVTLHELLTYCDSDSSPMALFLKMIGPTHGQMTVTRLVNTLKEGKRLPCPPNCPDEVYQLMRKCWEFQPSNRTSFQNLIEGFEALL

JAK1 IC50 potency class (JAK1)	JAK2 IC50 potency class (JAK2)	JAK3 IC50 potency class (JAK3)	IC50 [1]	IC50 (JAK1; read-out: JAK1 IC50 % Inhibition) [µM]	Structure (SMILES)
+++ (0.10 uM<IC50<0.01 uM)	++++ (0.01 uM<IC50<0.001 uM)	++++ (0.01 uM<IC50<0.001 uM)	+++ (0.10 uM<IC50<0.01 uM)		NC(=O)c1cnc(Nc2ccc(C3CCN(C4CCCC4)CC3)cc2)nc1NC1CC1 [Compound 8, 2-((4-(1-cyclopentylpiperidin-4-yl)phenyl)amino)-4-(cyclopropylamino)pyrimidine-5-carboxamide]
			++ (1.0 uM<IC50<0.10 uM)		CN(C)C(=O)C1CN(c2ccc(Nc3ncc(C(N)=O)c(NC4CC4)n3)cc2F)C1 [Compound 77, 4-(cyclopropylamino)-2-(4-(3-(dimethylcarbamoyl)azetidin-1-yl)-3-fluorophenylamino)pyrimidine-5-carboxamide]
			+++ (0.10 uM<IC50<0.01 uM)		CS(=O)(=O)N1CC(c2ccc(Nc3ncc(C(N)=O)c(NC4CC4)n3)cc2)C1 [Compound 73, 4-(cyclopropylamino)-2-(4-(1-(methylsulfonyl)azetidin-3-yl)phenylamino)pyrimidine-5-carboxamide]
+++ (0.10 uM<IC50<0.01 uM)	+++ (0.10 uM<IC50<0.01 uM)	++++ (0.01 uM<IC50<0.001 uM)	+++ (0.10 uM<IC50<0.01 uM)		CCS(=O)(=O)N1CC=C(c2ccc(Nc3ncc(C(N)=O)c(NC4CC4)n3)cc2)CC1 [Compound 57, 4-(cyclopropylamino)-2-((4-(1-(ethylsulfonyl)-1,2,3,6-tetrahydropyridin-4-yl)phenyl)amino)pyrimidine-5-carboxamide]
+++ (0.10 uM<IC50<0.01 uM)	++++ (0.01 uM<IC50<0.001 uM)	++++ (0.01 uM<IC50<0.001 uM)	+++ (0.10 uM<IC50<0.01 uM)		CN(C)C(=O)C1CCN(c2ccc(Nc3ncc(C(N)=O)c(NC4CC4)n3)cc2F)CC1 [Compound 52, 4-(cyclopropylamino)-2-((4-(4-(dimethylcarbamoyl)piperidin-1-yl)-3-fluorophenyl)amino)pyrimidine-5-carboxamide]
++ (1.0 uM<IC50<0.10 uM)	+++ (0.10 uM<IC50<0.01 uM)	+++ (0.10 uM<IC50<0.01 uM)	++ (1.0 uM<IC50<0.10 uM)		CS(=O)(=O)N1CCN(c2c(F)cc(Nc3ncc(C(N)=O)c(NC4CC4)n3)cc2F)CC1 [Compound 49, 4-(cyclopropylamino)-2-((3,5-difluoro-4-(4-(methylsulfonyl)piperazin-1-yl)phenyl)amino)pyrimidine-5-carboxamide]
+++ (0.10 uM<IC50<0.01 uM)	++++ (0.01 uM<IC50<0.001 uM)	++++ (0.01 uM<IC50<0.001 uM)	+++ (0.10 uM<IC50<0.01 uM)		CCN1CCC(c2ccc(Nc3ncc(C(N)=O)c(NC4CC4)n3)cc2)CC1 [Compound 15, 4-(cyclopropylamino)-2-((4-(1-ethylpiperidin-4-yl)phenyl)amino)pyrimidine-5-carboxamide]
+++ (0.10 uM<IC50<0.01 uM)	++++ (0.01 uM<IC50<0.001 uM)	++++ (0.01 uM<IC50<0.001 uM)	++ (1.0 uM<IC50<0.10 uM)		CS(=O)(=O)N1CCN(c2ccc(Nc3ncc(C(N)=O)c(NC4CC4)n3)cc2C#N)CC1 [Compound 47, 2-((3-cyano-4-(4-(methylsulfonyl)piperazin-1-yl)phenyl)amino)-4-(cyclopropylamino)pyrimidine-5-carboxamide]
	++ (1.0 uM<IC50<0.10 uM)	+++ (0.10 uM<IC50<0.01 uM)	++ (1.0 uM<IC50<0.10 uM)	> 1	NC(=O)c1cnc(Nc2ccc(C3CCN(c4ccccc4)CC3)cc2)nc1NC1CC1 [Compound 16, 4-(cyclopropylamino)-2-((4-(1-phenylpiperidin-4-yl)phenyl)amino)pyrimidine-5-carboxamide]
+++ (0.10 uM<IC50<0.01 uM)	++++ (0.01 uM<IC50<0.001 uM)	++++ (0.01 uM<IC50<0.001 uM)	+++ (0.10 uM<IC50<0.01 uM)		CCS(=O)(=O)N1CCN(c2ccc(Nc3ncc(C(N)=O)c(NC4CC4)n3)cc2F)CC1 [Compound 42, 4-(cyclopropylamino)-2-((4-(4-(ethylsulfonyl)piperazin-1-yl)-3-fluorophenyl)amino)pyrimidine-5-carboxamide]
			+++ (0.10 uM<IC50<0.01 uM)		CC(=O)N1CC(c2ccc(Nc3ncc(C(N)=O)c(NC4CC4)n3)cc2)C1 [Compound 71, 2-(4-(1-acetylazetidin-3-yl)phenylamino)-4-(cyclopropylamino)pyrimidine-5-carboxamide]
			+++ (0.10 uM<IC50<0.01 uM)		CCS(=O)(=O)N1CC(c2ccc(Nc3ncc(C(N)=O)c(NC4CC4)n3)cc2)C1 [Compound 75, 4-(cyclopropylamino)-2-(4-(1-(ethylsulfonyl)azetidin-3-yl)phenylamino)pyrimidine-5-carboxamide]
			++ (1.0 uM<IC50<0.10 uM)		CN(C)C(=O)C1CN(c2ccc(Nc3ncc(C(N)=O)c(NC4CC4)n3)cc2)C1 [Compound 76, 4-(cyclopropylamino)-2-(4-(3-(dimethylcarbamoyl)azetidin-1-yl)phenylamino)pyrimidine-5-carboxamide]
			+++ (0.10 uM<IC50<0.01 uM)		CN(C)S(=O)(=O)N1CC(c2ccc(Nc3ncc(C(N)=O)c(NC4CC4)n3)cc2)C1 [Compound 74, 4-(cyclopropylamino)-2-(4-(1-(N,N-dimethylsulfamoyl)azetidin-3-yl)phenylamino)pyrimidine-5-carboxamide]
			+++ (0.10 uM<IC50<0.01 uM)		COCC(=O)N1CC(c2ccc(Nc3ncc(C(N)=O)c(NC4CC4)n3)cc2)C1 [Compound 72, 4-(cyclopropylamino)-2-(4-(1-(2-methoxyacetyl)azetidin-3-yl)phenylamino)pyrimidine-5-carboxamide]
